For 8 compounds, IC50 results are on record in patent publication US20170240539A1, “Preparation and Use of Cyclic Sulfonamide Derivatives as PAR-1 Receptor Antagonists” (MERCK SHARP & DOHME CORP., priority 2014, published 2017).

pIC50: −log10 of the molar value.

For the test, the target named is T1, PAR-1 receptor (Homo sapiens, UniProt P25116).
T1 construct: endogenous in cells; host or cells: HEK 293
T1 sequence (P25116 22-425): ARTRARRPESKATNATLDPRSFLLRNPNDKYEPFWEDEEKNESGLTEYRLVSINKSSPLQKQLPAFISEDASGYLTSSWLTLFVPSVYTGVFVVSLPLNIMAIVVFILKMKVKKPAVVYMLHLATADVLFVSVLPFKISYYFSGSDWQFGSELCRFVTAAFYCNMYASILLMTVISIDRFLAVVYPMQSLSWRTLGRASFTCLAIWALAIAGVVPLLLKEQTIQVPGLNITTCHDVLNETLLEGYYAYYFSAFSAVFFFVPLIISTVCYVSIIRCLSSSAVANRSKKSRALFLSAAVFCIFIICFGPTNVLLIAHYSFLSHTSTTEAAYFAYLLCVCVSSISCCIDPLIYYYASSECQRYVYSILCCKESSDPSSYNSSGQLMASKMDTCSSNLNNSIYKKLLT
Nature of the test: PAR-1 FLIPR Assay. The test is classed as cell-based. As to conditions: HEK 293 cells, FLIPR calcium-5 dye; inhibition of signal from PAR1 selective receptor-activating peptide at 80% activation concentration (1.4-2.0 uM); compound incubated 30 minutes at 25 degrees. As to the method: The following assay was used to determine the ability of the inventive compounds to inhibit the PAR-1 receptor.
HEK 293 Cells are grown in media containing DMEM, 10% FBS pen/strep/L-Glutamine and non-essential amino acids. The cells are plated in 384-well PDL coated plates at 12000 cells/well and incubated overnight at 37° C./5% CO2. Media is then removed from the cells, which are then incubated with buffer (Hank's containing HEPES and Chaps) containing FLIPR calcium-5 dye, made with buffer containing probenecid, for 60 minutes at 37° C. Varying concentrations of compound in a final concentration of 5% DMSO are then added to the cells and incubated at 25 degrees for 30 minutes. The plates are then added to a FLIPR Tetra cellular screening system and the device adds a concentration of a PAR1 selective receptor-activating peptide with the sequence Ala-parafluoroPhe-Arg-Cha-Cit-Tyr-NH2 (SEQ ID NO: 3) (prepared in water) at a concentration equal to the effective concentration that achieves 80% activation of signaling on the day of the experiment. The range is from 1.4-2.0 uM peptide. The FLIPR reads at an excitation wavelength of 480 nm and an emission wavelength of 535 nm, and performs 60 scans over a 1-2 min reading time. The data are analyzed by taking the peak signal over a portion of the range of the 60 scans and dividing this signal by the minimum signal for that same range. The data are expressed as percent inhibition of the maximum divided by the minimum signal achieved at 80% activation produced by the PAR1 activating peptide on the test day.
Turning to `COc1ncccc1-c1ccc(/C=C/[C@@H]2[C@@H]3[C@@H](C)N(C(=O)OC(C)(C)C)S(=O)(=O)[C@]3(CC(N)=O)CC(F)(F)[C@H]2C)nc1` [Example 21], the pIC50 is 6.96.

Take `C[C@H]1NS(=O)(=O)[C@]2(CC(N)=O)CC(F)(F)[C@@H](C)[C@H](/C=C/c3ccc(-c4cccc(F)c4)cn3)[C@H]12` [Example 20, 2-((3R,3aR,4S,5S,7aR)-6,6-difluoro-4-((E)-2-(5-(3-fluorophenyl)pyridin-2-yl)vinyl)-3,5-dimethyl-1,1-dioxidooctahydrobenzo[d]isothiazol-7a-yl)acetamide]: the pIC50 is 8.30. As to `C[C@H]1NS(=O)(=O)[C@]2(C)CC(F)(F)[C@@H](C)[C@H](/C=C/c3ccc(-c4cccnc4C#N)cn3)[C@H]12` [Example 17, (3R,3aR,4S,5S,7aR)-6,6-difluoro-4-((E)-2-(2′-cyano-[3,3′-bipyridin]-6-yl)vinyl)-3,5,7a-trimethyloctahydrobenzo[d]isothiazole 1,1-dioxide], the pIC50 is 7.92. To `CC(=O)N1[C@H](C)[C@H]2[C@@H](/C=C/c3ccc(-c4ccccc4C#N)cn3)[C@@H](C)C(F)(F)C[C@H]2S1(=O)=O` [Example 9, 1-((3R,3aR,4S,5R,7aR)-6,6-difluoro-4-((E)-2-(5-(2-cyanophenyl)pyridin-2-yl)vinyl)-3,5-dimethyl-1,1-dioxidohexahydrobenzo[d]isothiazol-2(3H)-yl)ethanone] belongs 6.25. As for `COc1ncccc1-c1ccc(/C=C/[C@@H]2[C@@H]3[C@@H](C)NS(=O)(=O)[C@@]3(CC(N)=O)CC(F)(F)[C@H]2C)nc1` [Example 22, 2-((3R,3aR,4S,5S,7aS)-6,6-difluoro-4-((E)-2-(2′-methoxy-[3,3′-bipyridin]-6-yl)vinyl)-3,5-dimethyl-1,1-dioxidooctahydrobenzo[d]isothiazol-7a-yl)acetamide], the pIC50 was 6.47.

In the case of `CC[C@@H]1CC[C@@H]2[C@H]([C@H]1/C=C/c1ccc(-c3ccccc3C#N)cn1)[C@@H](C)N(CCO)S2(=O)=O` [Example 29, 2-(6-((E)-2-((3R,3aR,4R,5R,7aR)-5-ethyl-2-(2-hydroxyethyl)-3-methyl-1,1-dioxidooctahydrobenzo[d]isothiazol-4-yl)vinyl)pyridin-3-yl)benzonitrile], the pIC50 is 6.27.

On to `Cc1nc(/C=C/[C@@H]2[C@H]3[C@@H](CC(F)(F)[C@H]2C)S(=O)(=O)N[C@@H]3C)ccc1-c1cccnc1C#N` [Example 7], for which the pIC50 is 7.39. `COc1ncccc1-c1ccc(/C=C/[C@@H]2[C@@H]3[C@@H](C)N(C(=O)OC(C)(C)C)S(=O)(=O)[C@@]3(CC(N)=O)CC(F)(F)[C@H]2C)nc1` [Example 19, (3R,3aR,4S,5S,7aS)-tert-butyl 7a-(2-amino-2-oxoethyl)-6,6-difluoro-4-((E)-2-(2′-methoxy-[3,3′-bipyridin]-6-yl)vinyl)-3,5-dimethylhexahydrobenzo[d]isothiazole-2(3H)-carboxylate 1,1-dioxide]: the pIC50 was 7.27.

As usually defined, the pIC50 is the IC50 on a negative log10 scale, so that one unit is a factor of ten.
